According to patent publication US20220380383A1, “NEUROPROTECTIVE PDI MODULATING SMALL MOLECULES AND METHODS OF USE THEREOF” (THE TRUSTEES OF COLUMBIA UNIVERSITY IN THE CITY OF NEW YORK, priority 2018, published 2022):
Converted amounts (≈) assume the structure as drawn. Read-outs that look alike come from different tables or passages of the source.

Experiments:
[1] = molecular target: T1, human catalytic PDI A1 a domain (PDIa) (Homo sapiens, UniProt P07237); assay: Isothermal titration calorimetry (ITC) binding to PDIa
T1 construct: made in house; host or cells: Escherichia coli BL21-Gold (DE3)
Method: All ITC experiments were carried out at 25° C. on MicoCal Auto-ITC200 system (GE Healthcare). […] ITC titration experiments were carried out at 25° C. with 19 injections, 2 μl per injection, and 180 seconds between each injection. The reference cell power was set to 5 μcal/sec. A control experiment was performed for each compound, where each compound was titrated into buffer to account for heat released due to dilution. This background was subtracted from test data before a final dissociation constant was obtained. […] Gibbs free energy, ΔG, was calculated from equation ΔG=ΔH-TΔS. All other parameters, Ka, n, ΔH, ΔS, were determined directly from the titration data.
LOC14 analogs were designed and synthesized as described in the synthetic schemes. The analogs were evaluated for their binding to PDIa using isothermal titration calorimetry (ITC) (results of certain compounds are shown in FIGS. 1A-1E). Next, the analogs were tested for their ability to rescue PC12 cells from mHTT^Q103 induced cell death in a dose-dependent manner (results of certain compounds are shown in FIG. 2).

PC12 mHTTQ103 cells = assay: Rescue of PC12 cells from mHTTQ103-induced cell death; assay type: cell-based, rat; conditions: for EC50: Rattus norvegicus, PC-12
[2] = Solubility (stock solvent)
physchem = conditions: organic solvent or mixture
[3] = Tables 5-13, PC12 cells, read-out: EC50
[4] = rescue from mHTTQ103 induced cell death
[5] = Tables 5-13, solvent not given (DMSO in Table 1)
[6] = N/A = not active, read-out: ITC KD
[7] = rescue from mHTTQ103 induced cell death, read-out: PC12 cells EC50
[8] = Tables 5-13, NA = not active, read-out: Kd

T1 sequence (P07237 18-134): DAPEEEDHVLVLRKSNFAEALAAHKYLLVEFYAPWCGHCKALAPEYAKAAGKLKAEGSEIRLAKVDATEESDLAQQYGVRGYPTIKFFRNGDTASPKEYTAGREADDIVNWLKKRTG

| Structure (SMILES) | ITC KD ([1]; N/A = not active) | EC50 (PC12 mHTTQ103 cells; [3]) [nM] | Max Viability (%) (PC12 mHTTQ103 cells; Tables 5-13, PC12 cells) | PC12 cells Max % Viability (PC12 mHTTQ103 cells; [4]) [%] | Solubility [2] [mM in DMSO] | Solubility [2, 5] [mM] | PC12 cells EC50 (PC12 mHTTQ103 cells; [4]) | Solubility (physchem; DMSO) [mM] | Solubility (physchem) [mM] | Kd ([1]; ITC assay, read-out: KD) [nM] | Kd [1, 6] [nM] | EC50 (PC12 mHTTQ103 cells; [7]) [nM] | Kd [1, 8] [nM] | Kd ([1]; two-site binding, first site, read-out: ITC KD1) [nM] | Kd ([1]; two-site binding, second site, read-out: ITC KD2) [nM] | Solubility (physchem; NMP (N-Methyl-2-Pyrrolidine)) [mM] | Solubility (physchem; NMP) [mM] |
| --- | --- | --- | --- | --- | --- | --- | --- | --- | --- | --- | --- | --- | --- | --- | --- | --- | --- |
| O=c1c2ccccc2sn1-c1ccc(Oc2ccccc2)cc1 [LC-37] | KD = N/A irreversible or not active | 1680 | 22 | 21.77 | 100 | 100 (≈ 31.9 mg/mL) | – | – | – | – | – | – | – | – | – | – | – |
| O=c1[nH]sc2c(Cl)cccc12 [LC-38] | KD = N/A irreversible or not active | – | 8 | 7.63 | 100 | 100 (≈ 18.6 mg/mL) | Not Active | – | – | – | – | – | – | – | – | – | – |
| O=C(C1CC1)N1CCN(Cn2sc3c(Cl)cccc3c2=O)CC1 [LC-39] | KD = N/A irreversible or not active | – | 7 | 7.02 | 100 | 100 (≈ 35.2 mg/mL) | Not Active | – | – | – | – | – | – | – | – | – | – |
| O=c1[nH]sc2c(C(F)(F)F)cccc12 [LC-41] | KD = N/A irreversible or not active | – | 9 | 9.16 | 100 | 100 (≈ 21.9 mg/mL) | Not Active | – | – | – | – | – | – | – | – | – | – |
| O=C(C1CC1)N1CCN(Cn2sc3c(C(F)(F)F)cccc3c2=O)CC1 [LC-42] | KD = N/A irreversible or not active | – | 8 | 8.17 | 100 | 100 (≈ 38.5 mg/mL) | Not Active | – | – | – | – | – | – | – | – | – | – |
| NC(=O)c1cccc(F)c1SSc1c(F)cccc1C(N)=O [LC-44, 2,2′-disulfanediylbis(3-fluorobenzamide)] | KD = N/A irreversible or not active | – | – | 87.19 | 100 | – | – | – | – | – | – | – | – | – | – | – | – |
| NC(=O)c1cccc(C(F)(F)F)c1SSc1c(C(N)=O)cccc1C(F)(F)F [LC-45] | KD = N/A irreversible or not active | – | – | 16.98 | 100 | – | Not Active | – | – | – | – | – | – | – | – | – | – |
| O=C(C1CC1)N1CCN(Cn2sc3ncccc3c2=O)CC1 [LC-46] | – | 2830 | 39 | 39.23 | – | – | – | 50 (≈ 15.9 mg/mL) | 50 (≈ 15.9 mg/mL) | 10 | 9.6 | 2830 | – | – | – | – | – |
| O=c1ssc2ccccc12 [LC-48] | KD = N/A irreversible or not active | – | 8 | 8.14 | 100 | 100 (≈ 16.8 mg/mL) | Not Active | – | – | – | – | – | – | – | – | – | – |
| S=c1ssc2ccccc12 [LC-49] | KD = N/A irreversible or not active | – | 9 | 8.75 | 100 | 100 (≈ 18.4 mg/mL) | Not Active | – | – | – | – | – | – | – | – | – | – |
| O=c1c2cccnc2sn1CCN1CCCCC1 [LC-54] | – | – | 11 | 10.67 | 100 | 100 (≈ 26.3 mg/mL) | Not Active | – | – | – | < 20 | – | ≤ 20 | – | – | – | – |
| O=c1c2cccnc2sn1CCN1CCOCC1 [LC-55] | – | – | 13 | 13.20 | 100 | 100 (≈ 26.5 mg/mL) | Not Active | – | – | – | 20.1 | – | 20 | – | – | – | – |
| O=c1c2cccnc2sn1CCC1CCNCC1 [LC-56] | KD = N/A irreversible or not active | – | 14 | 14.03 | 100 | 100 (≈ 26.3 mg/mL) | Not Active | – | – | – | – | – | – | – | – | – | – |
| Cc1nnc2s[nH]c(=O)c2c1C [LC-57, 4,5-dimethylisothiazolo[5,4-c]pyridazin-3(2H)-one] | – | 12200 | 54 | 54.15 | 100 | 100 (≈ 18.1 mg/mL) | – | – | – | – | 17.5 | – | 18 | – | – | – | – |
| C[C@H](c1ccccc1)n1sc2ncccc2c1=O [LC-58, (R)-2-(1-phenylethyl)isothiazolo[5,4-b]pyridin-3(2H)-one] | – | – | 14 | 13.62 | 100 | 100 (≈ 25.6 mg/mL) | Not Active | – | – | – | 0.3 | – | 0.3 | – | – | – | – |
| Cc1ccc2c(=O)[nH]sc2c1 [LC-60, 6-Methylbenzo[d]isothiazol-3(2H)-one] | – | 562 | 60 | 59.49 | 100 | 100 (≈ 16.5 mg/mL) | – | – | – | – | 347 | 562 | 347 | – | – | – | – |
| Cc1ccc2s[nH]c(=O)c2c1 [LC-61, 5-Methylbenzo[d]isothiazol-3(2H)-one] | – | 591 | 65 | 64.68 | 100 | 100 (≈ 16.5 mg/mL) | – | – | – | – | 267 | 591 | 267 | – | – | – | – |
| Cc1ccc2c(=O)n(CN3CCN(C(=O)C4CC4)CC3)sc2c1 [LC-62, 2-((4-(cyclopropanecarbonyl)piperazin-1-yl)methyl)-6-methylbenzo[d]isothiazol-3(2H)-one] | – | 1580 | 54 | 54.31 | – | – | – | 50 (≈ 16.6 mg/mL) | 50 (≈ 16.6 mg/mL) | – | 662 | 1580 | 662 | – | – | – | – |
| Cc1ccc2sn(CN3CCN(C(=O)C4CC4)CC3)c(=O)c2c1 [LC-63, 2-((4-(cyclopropanecarbonyl)piperazin-1-yl)methyl)-5-methylbenzo[d]isothiazol-3(2H)-one] | – | 659 | 66 | – | – | – | – | 50 (≈ 16.6 mg/mL) | 50 (≈ 16.6 mg/mL) | – | 240 | 659 | 240 | – | – | – | – |
| C#CCn1sc2ccccc2c1=O [LC-66, 2-(prop-2-yn-1-yl)benzo[d]isothiazol-3(2H)-one] | – | – | – | 40.34 | 100 | – | – | – | – | – | – | 763 | – | 30.7 | 14400 | – | – |
| O=c1c2ccccc2on1Cc1ccccc1 [LC-67, 2-benzylbenzo[d]isoxazol-3(2H)-one] | Not active or irreversible | – | – | 8.05 | 100 | – | not active | – | – | – | – | – | – | – | – | – | – |
| Cc1nc2sn(CN3CCN(Cn4sc5nc(C)c(C)c(C)c5c4=O)CC3)c(=O)c2c(C)c1C [LC-71, 2,2′-(piperazine-1,4-diylbis(methylene))bis(4,5,6-trimethylisothiazolo[5,4-b]pyridin-3(2H)-one)] | – | 1020 | 41 | 40.98 | – | – | – | – | – | – | – | 1020 | – | – | – | 2.5 (≈ 1.25 mg/mL) | 2.5 (≈ 1.25 mg/mL) |
| Cc1nnc2sn(CN3CCN(Cn4sc5nnc(C)c(C)c5c4=O)CC3)c(=O)c2c1C [LC-72, 2,2′-(piperazine-1,4-diylbis(methylene))bis(4,5-dimethylisothiazolo[5,4-c]pyridazin-3(2H)-one)] | – | – | 10 | 10.26 | – | – | Not Active | – | – | – | – | – | – | – | – | 1 (≈ 0.473 mg/mL) | 1 (≈ 0.473 mg/mL) |
